Test results reported in patent publication US9073830B2 (Hyundai Pharm Co., Ltd., priority 2011, dated 2015).

Experiments:
human 11β-HSD1 = molecular target: T1, human 11β-HSD1 (Homo sapiens, UniProt P28845); assay: Enzyme activity analysis on human 11β-HSD1 (HTRF cortisol, liver microsomes); format: biochemical; details: first value of cell
T1 construct: 100 ug/ml human/mouse liver microsomes; from tissue; host or cells: human liver microsomes
Summary of the method: (§1)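 Cortisol generated by mouse or human liver microsome 11β-HSD1 during 2 h at 37° C., measured by HTRF competition (cryptate anti-cortisol antibody, d2-cortisol, 2 h room temperature) against a cortisol standard curve. IC50 from percent inhibition versus no-compound control.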

mouse 11β-HSD1 = molecular target: T2, mouse 11β-HSD1 (Mus musculus, UniProt P50172); assay: Enzyme activity analysis on mouse 11β-HSD1 (HTRF cortisol, liver microsomes); format: biochemical; details: second value of cell
T2 construct: 100 ug/ml human/mouse liver microsomes; from tissue; host or cells: mouse liver microsomes
Summary of the method: as §1

T2 sequence (P50172 whole entry): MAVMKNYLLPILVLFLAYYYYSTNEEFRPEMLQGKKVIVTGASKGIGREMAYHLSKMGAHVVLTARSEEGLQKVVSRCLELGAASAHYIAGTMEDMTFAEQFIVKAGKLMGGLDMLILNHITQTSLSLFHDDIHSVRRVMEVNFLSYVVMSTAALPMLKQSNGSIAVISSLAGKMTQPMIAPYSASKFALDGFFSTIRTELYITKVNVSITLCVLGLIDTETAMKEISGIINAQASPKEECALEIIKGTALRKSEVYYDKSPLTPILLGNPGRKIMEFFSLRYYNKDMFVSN
T1 sequence (P28845 whole entry): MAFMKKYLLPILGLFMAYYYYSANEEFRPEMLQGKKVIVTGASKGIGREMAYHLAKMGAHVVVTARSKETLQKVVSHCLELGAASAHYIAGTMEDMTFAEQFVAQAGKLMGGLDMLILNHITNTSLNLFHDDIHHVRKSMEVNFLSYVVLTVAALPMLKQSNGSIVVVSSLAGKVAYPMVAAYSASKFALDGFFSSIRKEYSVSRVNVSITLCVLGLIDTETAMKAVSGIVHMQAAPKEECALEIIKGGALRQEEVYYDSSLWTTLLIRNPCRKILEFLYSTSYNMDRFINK

Structure (SMILES)	IC50 (human 11β-HSD1) [µM]	IC50 (mouse 11β-HSD1) [µM]
NC(=O)C12CC3CC(C1)C(NC(=O)C1(NS(=O)(=O)c4ccccc4C(F)(F)F)CCC1)C(C3)C2 (stereo not drawn) [compound 157, N-4-(1-(2-trifluoromethylphenylsulfonamido)cyclobutanecarboxyamido)adamantane-1-carboxyamide]	0.061	0.41
NC(=O)C12CC3CC(C1)C(NC(=O)C1(NS(=O)(=O)c4cc(Cl)c(Cl)cc4Cl)CCC1)C(C3)C2 (stereo not drawn) [compound 161, N-4-(1-(2,4,5-trichlorophenylsulfonamido)cyclobutanecarboxyamido)adamantane-1-carboxyamide]	0.052	0.428
Cc1c(Cl)cccc1S(=O)(=O)NC1(C(=O)NC2C3CC4CC2CC(C(N)=O)(C4)C3)CCCC1 (stereo not drawn) [compound 167, N-4-(1-(3-chloro-2-methylphenylsulfonamido)cyclopentanecarboxyamido)adamantane-1-carboxyamide]	0.008	0.016
NC(=O)C12CC3CC(C1)C(NC(=O)C1(NS(=O)(=O)c4cccc5cccnc45)CCCC1)C(C3)C2 (stereo not drawn) [compound 168, N-4-(1-(quinoline-8-sulfonamido)cyclopentanecarboxyamido)adamantane-1-carboxyamide]	0.022	0.007
Cc1ccccc1S(=O)(=O)NC1(C(=O)NC2C3CC4CC2CC(C(N)=O)(C4)C3)CCCC1 (stereo not drawn) [compound 169, N-4-(1-(2-methylphenylsulfonamido)cyclopentanecarboxyamido)adamantane-1-carboxyamide]	0.03	0.049
NC(=O)C12CC3CC(C1)C(NC(=O)C1(NS(=O)(=O)c4ccccc4Cl)CCCC1)C(C3)C2 (stereo not drawn) [compound 170, N-4-(1-(2-chlorophenylsulfonamido)cyclopentanecarboxyamido)adamantane-1-carboxyamide]	0.011	0.012
NC(=O)C12CC3CC(C1)C(NC(=O)C1(NS(=O)(=O)c4ccccc4C(F)(F)F)CCCC1)C(C3)C2 (stereo not drawn) [compound 172, N-4-(1-(2-trifluoromethylphenylsulfonamido)cyclopentanecarboxyamido)adamantane-1-carboxyamide]	0.016	0.053
NC(=O)C12CC3CC(C1)C(NC(=O)C1(NS(=O)(=O)c4ccccc4[N+](=O)[O-])CCCC1)C(C3)C2 (stereo not drawn) [compound 173, N-4-(1-(2-nitrophenylsulfonamido)cyclopentanecarboxyamido)adamantane-1-carboxyamide]	0.014	0.038
NC(=O)C12CC3CC(C1)C(NC(=O)C1(NS(=O)(=O)c4ccccc4Br)CCCC1)C(C3)C2 (stereo not drawn) [compound 174, N-4-(1-(2-bromophenylsulfonamido)cyclopentanecarboxyamido)adamantane-1-carboxyamide]	0.017	0.015
NC(=O)C12CC3CC(C1)C(NC(=O)C1(NS(=O)(=O)c4c(Cl)cccc4Cl)CCCC1)C(C3)C2 (stereo not drawn) [compound 175, N-4-(1-(2,6-dichlorophenylsulfonamido)cyclopentanecarboxyamido)adamantane-1-carboxyamide]	0.006	0.003
NC(=O)C12CC3CC(C1)C(NC(=O)C1(NS(=O)(=O)c4cccc(Cl)c4Cl)CCCC1)C(C3)C2 (stereo not drawn) [compound 176, N-4-(1-(2,3-dichlorophenylsulfonamido)cyclopentanecarboxyamido)adamantane-1-carboxyamide]	0.009	0.007

The remaining lines, values ahead:

IC50 (human 11β-HSD1) [µM]	IC50 (mouse 11β-HSD1) [µM]	Structure (SMILES)
1.63	0.565	COc1ccc(S(=O)(=O)NC2(C(=O)NC3C4CC5CC3CC(C(N)=O)(C5)C4)CCC2)cc1F (stereo not drawn) [compound 154, N-4-(1-(3-fluoro-4-methoxyphenylsulfonamido)cyclobutanecarboxyamido)adamantane-1-carboxyamide]
0.024	0.145	NC(=O)C12CC3CC(C1)C(NC(=O)C1(NS(=O)(=O)c4ccccc4Br)CCC1)C(C3)C2 (stereo not drawn) [compound 155, N-4-(1-(2-bromophenylsulfonamido)cyclobutanecarboxyamido)adamantane-1-carboxyamide]
0.046	0.138	Cc1ccccc1S(=O)(=O)NC1(C(=O)NC2C3CC4CC2CC(C(N)=O)(C4)C3)CCC1 (stereo not drawn) [compound 156, N-4-(1-(2-methylphenylsulfonamido)cyclobutanecarboxyamido)adamantane-1-carboxyamide]
0.018	0.058	NC(=O)C12CC3CC(C1)C(NC(=O)C1(NS(=O)(=O)c4cccc(Cl)c4Cl)CCC1)C(C3)C2 (stereo not drawn) [compound 158, N-4-(1-(2,3-dichlorophenylsulfonamido)cyclobutanecarboxyamido)adamantane-1-carboxyamide]
0.096	0.126	NC(=O)C12CC3CC(C1)C(NC(=O)C1(NS(=O)(=O)c4cccc(Cl)c4F)CCC1)C(C3)C2 (stereo not drawn) [compound 159, N-4-(1-(2-fluoro-3-chlorophenylsulfonamido)cyclobutanecarboxyamido)adamantane-1-carboxyamide]
0.018	0.113	NC(=O)C12CC3CC(C1)C(NC(=O)C1(NS(=O)(=O)c4ccccc4OC(F)(F)F)CCC1)C(C3)C2 (stereo not drawn) [compound 160, N-4-(1-(2-trifluoromethoxyphenylsulfonamido)cyclobutanecarboxyamido)adamantane-1-carboxyamide]
0.04	0.453	NC(=O)C12CC3CC(C1)C(NC(=O)C1(NS(=O)(=O)c4ccc(Br)cc4Cl)CCC1)C(C3)C2 (stereo not drawn) [compound 162, N-4-(1-(2-chloro-4-bromophenylsulfonamido)cyclobutanecarboxyamido)adamantane-1-carboxyamide]
0.373	0.443	NC(=O)C12CC3CC(C1)C(NC(=O)C1(NS(=O)(=O)c4cc(F)ccc4F)CCC1)C(C3)C2 (stereo not drawn) [compound 163, N-4-(1-(2,5-difluorophenylsulfonamido)cyclobutanecarboxyamido)adamantane-1-carboxyamide]
0.058	0.298	Cc1ccc(F)c(S(=O)(=O)NC2(C(=O)NC3C4CC5CC3CC(C(N)=O)(C5)C4)CCC2)c1 (stereo not drawn) [compound 164, N-4-(1-(2-fluoro-5-methylphenylsulfonamido)cyclobutanecarboxyamido)adamantane-1-carboxyamide]
0.101	0.29	Cc1ccc(F)cc1S(=O)(=O)NC1(C(=O)NC2C3CC4CC2CC(C(N)=O)(C4)C3)CCC1 (stereo not drawn) [compound 165, N-4-(1-(2-methyl-5-fluorophenylsulfonamido)cyclobutanecarboxyamido)adamantane-1-carboxyamide]
0.724	0.559	NC(=O)C12CC3CC(C1)C(NC(=O)C1(NS(=O)(=O)c4ccc(OC(F)F)cc4)CCC1)C(C3)C2 (stereo not drawn) [compound 166, N-4-(1-(4-(difluoromethoxy)phenylsulfonamido)cyclobutanecarboxyamido)adamantane-1-carboxyamide]
0.038	0.12	NC(=O)C12CC3CC(C1)C(NC(=O)C1(NS(=O)(=O)c4ccccc4)CCCC1)C(C3)C2 (stereo not drawn) [compound 171, N-4-(1-(phenylsulfonamido)cyclopentanecarboxyamido)adamantane-1-carboxyamide]
0.009	0.006	NC(=O)C12CC3CC(C1)C(NC(=O)C1(NS(=O)(=O)c4cccc(Cl)c4F)CCCC1)C(C3)C2 (stereo not drawn) [compound 177, N-4-(1-(2-fluoro-3-chlorophenylsulfonamido)cyclopentanecarboxyamido)adamantane-1-carboxyamide]
